System: healthy subjects ≧60 years of age
Assay: Adverse events during oral vancomycin pre-treatment period of the Phase 1 study
Assay type: in vivo, human
Procedure: VP20621 (10^4, 10^6, or 10^8 spores) or placebo were administered as a single dose to subjects age 18-45 (Group 1) or ≧60 years of age (Group 2). In Group 3, an oral suspension of 10^8 spores or placebo was administered twice daily for five days to patients≧60 years in age. In Group 4, subjects≧60 years of age received 5 days of oral vancomycin followed by 14 days of once daily VP20621 (10^4, 10^6, or 10^8 spores) or placebo. All subjects were followed through day 28. C. difficile stool cultures were performed at various time points. C. difficile isolates were tested for the production of toxin by enzyme immunoassay.
Purified VP 20621 (spores of a non-toxigenic strain of C. difficile) were produced in a liquid culture medium free of animal-derived components. VP 20621 was administered as an oral liquid suspension. The potency of the drug is based on the viable count of the spores.
Forty-three (43) subjects were pre treated with vancomycin to ensure that a sufficient number of subjects would be available for randomization to achieve the planned target sample size of 36. Twelve (28%) of the 43 subjects had adverse events during the vancomycin pre treatment period (Table 1).

[1] = vancomycin pre-treatment, N = 43

Compound: CN[C@H](CC(C)C)C(=O)N[C@H]1C(=O)N[C@@H](CC(N)=O)C(=O)N[C@H]2C(=O)N[C@H]3C(=O)N[C@H](C(=O)N[C@H](C(=O)O)c4cc(O)cc(O)c4-c4cc3ccc4O)[C@H](O)c3ccc(c(Cl)c3)Oc3cc2cc(c3O[C@@H]2O[C@H](CO)[C@@H](O)[C@H](O)[C@H]2O[C@H]2C[C@](C)(N)[C@H](O)[C@H](C)O2)Oc2ccc(cc2Cl)[C@H]1O [Vancomycin, vancomycin]
- Subjects with a gastrointestinal adverse effect (Group 4, during pre-treatment with vancomycin): 16%
- Subjects with mild diarrhea or loose/watery stools (Group 4, during pre-treatment with vancomycin (3/43)): 7%
- Subjects with adverse events (vancomycin pre treatment period, twelve of 43 subjects): 28%
- Gastrointestinal AEs: Abdominal distention [1]: 1 (2%)
- Gastrointestinal AEs: Abdominal pain [1]: 2 (5%)
- Gastrointestinal AEs: Flatulence [1]: 1 (2%)
- Gastrointestinal AEs: Gingival bleeding [1]: 1 (2%)
- Gastrointestinal AEs: Oral paresthesia [1]: 1 (2%)
- Gastrointestinal AEs: Toothache [1]: 1 (2%)
- Gastrointestinal AEs: Vomiting [1]: 1 (2%)
- Other AEs: Dizziness [1]: 2 (5%)
- Other AEs: Dry skin [1]: 1 (2%)
- Other AEs: Malaise [1]: 1 (2%)
- Other AEs: Pruritis [1]: 1 (2%)
- Other AEs: Rash [1]: 1 (2%)
- Gastrointestinal AEs: Diarrhea (vancomycin pre-treatment, oral 125 mg QID Days −5 to −1, N = 43): 3 (7%)
